Common to all, as to type: cell-based
What all share (details): free compounds (natural products and synthetic analogs), cell viability 96 hours after treatment

The subject of experiment [1] is N87 (gastric cancer) cells. Nature of the experiment: In vitro cell assay (MTS cell viability), N87. The gist of the method:
(§1)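 Cells seeded 24 h, then treated with antibody-drug conjugates or free drug, 3-fold serial dilutions at 10 concentrations in duplicate. Viability by MTS at 96 h as percent of untreated control; IC50 from four-parameter logistic fit.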

Experiment [2] relates to BT474 (breast cancer) cells. Nature of the experiment: In vitro cell assay (MTS cell viability), BT474. The gist of the method:
as §1

In experiment [3] the test system is MDA-MB-361-DYT2 (breast cancer) cells. Nature of the experiment: In vitro cell assay (MTS cell viability), MDA-MB-361-DYT2. The gist of the method:
as §1

Counter-ions that a name gives are not always drawn.

As usually defined, the IC50 is the concentration that gives 50% inhibition. The low end stands for greater potency in that assay, the high end for weaker potency in that assay.

With `CC(=O)O[C@@H](C)/C=C\C(=O)N[C@@H]1C[C@H](C)[C@H](C/C=C(C)/C=C/[C@@H]2C[C@]3(CO3)C[C@@H](CC(=O)NCCO)O2)O[C@@H]1C` [#B95, ((2S,3Z)-5-{[(2R,3R,5S,6S)-6-{(2E,4E)-5-[(3S,5S,7S)-7-{2-[(2-hydroxyethyl)amino]-2-oxoethyl}-1,6-dioxaspiro[2.5]oct-5-yl]-3-methylpenta-2,4-dien-1-yl}-2,5-dimethyltetrahydro-2H-pyran-3-yl]amino}-5-oxopent-3-en-2-yl acetate], the figures for the IC50 in experiment [1], in experiment [2] and in experiment [3] were 1.06 nM, 1.28 nM and 11.1 nM, respectively.
As for `CC(=O)O[C@@H](C)/C=C\C(=O)N[C@@H]1C[C@H](C)[C@H](C/C=C(C)/C=C/[C@H]2O[C@H](CC(=O)N3CCNCC3)C[C@@]3(CO3)[C@@H]2O)O[C@@H]1C` [#B12, (2S,3Z)-5-({(2R,3R,5S,6S)-6-[(2E,4E)-5-{(3R,4R,5R,7S)-4-hydroxy-7-[2-oxo-2-(piperazin-1-yl)ethyl]-1,6-dioxaspiro[2.5]oct-5-yl}-3-methylpenta-2,4-dien-1-yl]-2,5-dimethyltetrahydro-2H-pyran-3-yl}amino)-5-oxopent-3-en-2-yl acetate, acetate salt], the IC50 was found to be 54.6 nM in experiment [1] (96 h); 55.5 nM in experiment [2] (Homo sapiens, BT-474); 87.8 nM in experiment [3] (96 h).
With `CC(=O)O[C@@H](C)/C=C\C(=O)N[C@@H]1C[C@H](C)[C@H](C/C=C(C)/C=C/[C@H]2O[C@H](CC(=O)NCc3cc(N)ccc3F)C[C@@]3(CO3)[C@@H]2O)O[C@@H]1C` [#B92, (2S,3Z)-5-{[(2R,3R,5S,6S)-6-{(2E,4E)-5-[(3R,4R,5R,7S)-7-{2-[(5-amino-2-fluorobenzyl)amino]-2-oxoethyl}-4-hydroxy-1,6-dioxaspiro[2.5]oct-5-yl]-3-methylpenta-2,4-dien-1-yl}-2,5-dimethyltetrahydro-2H-pyran-3-yl]amino}-5-oxopent-3-en-2-yl acetate], the IC50 was found to be 1.5 nM in experiment [1] (96 h); 2.28 nM in experiment [2] (Homo sapiens, BT-474); 6.18 nM in experiment [3] (96 h).
For `CC(=O)O[C@@H](C)/C=C\C(=O)N[C@@H]1C[C@H](C)[C@H](C/C=C(C)/C=C/[C@H]2O[C@H](CN)C[C@@]3(CO3)[C@@H]2O)O[C@@H]1C` [#B147, (2S,3Z)-5-{[(2R,3R,5S,6S)-6-{(2E,4E)-5-[(3R,4R,5R,7S)-7-(aminomethyl)-4-hydroxy-1,6-dioxaspiro[2.5]oct-5-yl]-3-methylpenta-2,4-dien-1-yl}-2,5-dimethyltetrahydro-2H-pyran-3-yl]amino}-5-oxopent-3-en-2-yl acetate, acetate salt] the same measures were 9.92 nM, 6.81 nM and 17.2 nM.
For `CC(=O)O[C@@H](C)/C=C\C(=O)N[C@@H]1C[C@H](C)[C@H](C/C=C(C)/C=C/[C@H]2O[C@H](CC(=O)NCc3ccc(N)cc3)C[C@@]3(CO3)[C@@H]2O)O[C@@H]1C` [#B11, (2S,3Z)-5-{[(2R,3R,5S,6S)-6-{(2E,4E)-5-[(3R,4R,5R,7S)-7-{2-[(4-aminobenzyl)amino]-2-oxoethyl}-4-hydroxy-1,6-dioxaspiro[2.5]oct-5-yl]-3-methylpenta-2,4-dien-1-yl}-2,5-dimethyltetrahydro-2H-pyran-3-yl]amino}-5-oxopent-3-en-2-yl acetate] the same measures were 1.61 nM, 3.42 nM and 6.71 nM.
Take `CC(=O)O[C@@H](C)/C=C\C(=O)N[C@@H]1C[C@H](C)[C@H](C/C=C(C)/C=C/[C@H]2O[C@H](CC(=O)N(C)Cc3ccc(S(=O)(=O)N(C)C)cc3)C[C@@]3(CO3)[C@@H]2O)O[C@@H]1C` [#B91, (2S,3Z)-5-{[(2R,3R,5S,6S)-6-{(2E,4E)-5-[(3R,4R,5R,7S)-7-(2-{[4-(dimethylsulfamoyl)benzyl](methyl)amino}-2-oxoethyl)-4-hydroxy-1,6-dioxaspiro[2.5]oct-5-yl]-3-methylpenta-2,4-dien-1-yl}-2,5-dimethyltetrahydro-2H-pyran-3-yl]amino}-5-oxopent-3-en-2-yl acetate]: the IC50 is 0.783 nM in experiment [1] (96 h); 3.02 nM in experiment [2] (Homo sapiens, BT-474); 3.78 nM in experiment [3] (96 h).
The like results for `CSCCN(C)C(=O)C[C@@H]1C[C@@]2(CO2)[C@H](O)[C@@H](/C=C/C(C)=C/C[C@@H]2O[C@H](C)[C@H](NC(=O)/C=C\[C@H](C)OC(C)=O)C[C@@H]2C)O1` [#B82, (2S,3Z)-5-{[(2R,3R,5S,6S)-6-{(2E,4E)-5-[(3R,4R,5R,7S)-4-hydroxy-7-(2-{methyl[2-(methylsulfanyl)ethyl]amino}-2-oxoethyl)-1,6-dioxaspiro[2.5]oct-5-yl]-3-methylpenta-2,4-dien-1-yl}-2,5-dimethyltetrahydro-2H-pyran-3-yl]amino}-5-oxopent-3-en-2-yl acetate] were, in that order, 0.12 nM, 0.288 nM and 0.251 nM.
The like results for `CC(=O)O[C@@H](C)/C=C\C(=O)N[C@@H]1C[C@H](C)[C@H](C/C=C(C)/C=C/[C@H]2O[C@H](CC(=O)N3CCN(C)CC3)C[C@@]3(CO3)[C@@H]2O)O[C@@H]1C` [#B13, (2S,3Z)-5-({(2R,3R,5S,6S)-6-[(2E,4E)-5-{(3R,4R,5R,7S)-4-hydroxy-7-[2-(4-methylpiperazin-1-yl)-2-oxoethyl]-1,6-dioxaspiro[2.5]oct-5-yl}-3-methylpenta-2,4-dien-1-yl]-2,5-dimethyltetrahydro-2H-pyran-3-yl}amino)-5-oxopent-3-en-2-yl acetate, acetate salt] were, in that order, 0.99 nM, 0.68 nM and 1.93 nM.
For `CC(=O)O[C@@H](C)/C=C\C(=O)N[C@@H]1C[C@H](C)[C@H](C/C=C(C)/C=C/[C@@H]2C[C@]3(CO3)C[C@@H](CN)O2)O[C@@H]1C` [#B140, (2S,3Z)-5-{[(2R,3R,5S,6S)-6-{(2E,4E)-5-[(3R,5S,7S)-7-(aminomethyl)-1,6-dioxaspiro[2.5]oct-5-yl]-3-methylpenta-2,4-dien-1-yl}-2,5-dimethyltetrahydro-2H-pyran-3-yl]amino}-5-oxopent-3-en-2-yl acetate, acetate salt] the same measures were 1.01 nM, 0.517 nM and 0.632 nM.
Regarding `COC(=O)C[C@@H]1C[C@@]2(CO2)[C@H](O)[C@@H](/C=C/C(C)=C/C[C@@H]2O[C@H](C)[C@H](NC(=O)/C=C\[C@H](C)OC(C)=O)C[C@@H]2C)O1` [#B55, methyl [(3R,5S,7R,8R)-7-{(1E,3E)-5-[(2S,3S,5R,6R)-5-{[(2Z,4S)-4-(acetyloxy)pent-2-enoyl]amino}-3,6-dimethyltetrahydro-2H-pyran-2-yl]-3-methylpenta-1,3-dien-1-yl}-8-hydroxy-1,6-dioxaspiro[2.5]oct-5-yl]acetate], the concentration for half-maximal inhibition (IC50) was found to be 0.822 nM in experiment [1] (96 h); 0.879 nM in experiment [2] (Homo sapiens, BT-474); 1.26 nM in experiment [3] (96 h).
For `CCCNC(=O)C[C@@H]1C[C@@]2(CO2)[C@H](O)[C@@H](/C=C/C(C)=C/C[C@@H]2O[C@H](C)[C@H](NC(=O)/C=C\[C@H](C)OC(=O)C(C)C)C[C@@H]2C)O1` [#B71, (2S,3Z)-5-({(2R,3R,5S,6S)-6-[(2E,4E)-5-{(3R,4R,5R,7S)-4-hydroxy-7-[2-oxo-2-(propylamino)ethyl]-1,6-dioxaspiro[2.5]oct-5-yl}-3-methylpenta-2,4-dien-1-yl]-2,5-dimethyltetrahydro-2H-pyran-3-yl}amino)-5-oxopent-3-en-2-yl 2-methylpropanoate] the same measures were 0.451 nM, 1.08 nM and 1.36 nM.
On to `CC(=O)O[C@@H](C)/C=C\C(=O)N[C@@H]1C[C@H](C)[C@H](C/C=C(C)/C=C/[C@@H]2C[C@]3(CO3)C[C@@H](CC(=O)NCCS(C)(=O)=O)O2)O[C@@H]1C` [#B104, (2S,3Z)-5-{[(2R,3R,5S,6S)-2,5-dimethyl-6-{(2E,4E)-3-methyl-5-[(3S,5S,7S)-7-(2-{[2-(methylsulfonyl)ethyl]amino}-2-oxoethyl)-1,6-dioxaspiro[2.5]oct-5-yl]penta-2,4-dien-1-yl}tetrahydro-2H-pyran-3-yl]amino}-5-oxopent-3-en-2-yl acetate], for which the IC50 is 1.41 nM in experiment [1] (96 h); 4.02 nM in experiment [2] (Homo sapiens, BT-474); 9.13 nM in experiment [3] (96 h).
On to `CC(=O)O[C@@H](C)/C=C\C(=O)N[C@@H]1C[C@H](C)[C@H](C/C=C(C)/C=C/[C@H]2O[C@H](CC(=O)N[C@H]3CC[C@H](N(C)C)CC3)C[C@@]3(CO3)[C@@H]2O)O[C@@H]1C` (relative stereo) [#B86, (2S,3Z)-5-{[(2R,3R,5S,6S)-6-{(2E,4E)-5-[(3R,4R,5R,7S)-7-(2-{[trans-4-(dimethylamino)cyclohexyl]amino}-2-oxoethyl)-4-hydroxy-1,6-dioxaspiro[2.5]oct-5-yl]-3-methylpenta-2,4-dien-1-yl}-2,5-dimethyltetrahydro-2H-pyran-3-yl]amino}-5-oxopent-3-en-2-yl acetate], for which the IC50 in experiment [1] is 14 nM; in experiment [2], 20.1 nM; in experiment [3], 73.3 nM.
In the case of `CC(=O)O[C@@H](C)/C=C\C(=O)N[C@@H]1C[C@H](C)[C@H](C/C=C(C)/C=C/[C@@H]2C[C@]3(CO3)C[C@@H](CC(=O)NCc3ccc(N)cc3)O2)O[C@@H]1C` [#B100, (2S,3Z)-5-{[(2R,3R,5S,6S)-6-{(2E,4E)-5-[(3S,5S,7S)-7-{2-[(4-aminobenzyl)amino]-2-oxoethyl}-1,6-dioxaspiro[2.5]oct-5-yl]-3-methylpenta-2,4-dien-1-yl}-2,5-dimethyltetrahydro-2H-pyran-3-yl]amino}-5-oxopent-3-en-2-yl acetate], the IC50 in experiment [1] (96 h) amounted to 5.05 nM; in experiment [2] (Homo sapiens, BT-474), 10.6 nM; in experiment [3] (96 h), 16.9 nM.

The values above are taken from patent publication US9504669B2, “Spliceostatin analogs and methods for their preparation” (PFIZER INC., priority 2012, dated 2016).
